These results are taken from US4556715A, “Nicotinic acid derivatives” (Kyorin Pharmaceutical Co., Ltd., priority 1980, dated 1985).

Read-outs that look alike come from different tables or passages of the source.

This data set relates to serum and liver lipid levels in rats. Nature of the data set: Serum and liver lipid levels and relative liver weight in rats (100 mg/kg, 10 days). The class given is in vivo, Male rats of the Wistar strain. The conditions noted are these: for response vs control in vivo at 100 mg/kg: Rattus norvegicus, po; for response vs control in vivo at 100 mg/kg / Relative liver weight, relative to Control (100): in parentheses, Control = (100); for Liver lipid levels Ch / Liver lipid levels PL / Liver lipid levels TG / Relative liver weight / Serum lipid levels Ch / Serum lipid levels PL / Serum lipid levels TG: 100 mg/kg p.o. 10 days, Mean ± S.E. (n = 9). As for the experimental part: (2) Male rats of the Wistar strain weighing 160-180 g were fed a stock deit (CE-2, Japan CLEA, Tokyo) and water ad libitum. The present compounds and KCD-232 were suspended, respectively, in a 0.5% of CMC solution and give orally to rats once a day at a dose of 100 mg/kg b.w. for 10 days.
Control rats were received the 0.5% CMC solution alone. The diet was withdrawn immediately after the last administration of compounds. Animals were sacrificed by decapitation 4 hr after the last administration and blood was collected, clotted and centrifuged to obtain serum. The liver was excised quickly and weighed. Total lipids were extracted from the serum and liver, and the levels of Ch, TG and PL were determined colorimetrically.

[1] abbreviates: 240 h, Table 2, read-out: Liver lipid levels PL, relative to Control (100).
Where [2] appears, read: Table 2, read-out: Liver lipid levels Ch, relative to Control (100).
Where [3] appears, read: Table 2, read-out: Liver lipid levels TG, relative to Control (100).
The mark [4] stands for this setting: Table 2, read-out: Serum lipid levels Ch, relative to Control (100).
[5] abbreviates: Table 2, read-out: Serum lipid levels PL, relative to Control (100).
[6] abbreviates: Table 2, read-out: Serum lipid levels TG, relative to Control (100).

For `O=C(OCCc1ccc(OCCc2ccc(Cl)cc2)cc1)c1cccnc1` [n1=2, n2=2, 4-(4-Chorophenethyloxy)phenetyl nicotinate], under setting [1], the response vs control in vivo at 100 mg/kg is 107%. Further, the response vs control in vivo at 100 mg/kg under setting [2] came out at 79.3%. Besides, the response vs control in vivo at 100 mg/kg under setting [3] is 84.2%. For the same molecule, the response vs control in vivo at 100 mg/kg under setting [4] is 78.8%. Also, the response vs control in vivo at 100 mg/kg under setting [5] is 78.2%. In addition, the response vs control in vivo at 100 mg/kg under setting [6] turned out to be 39.1%. Under “Table 2”, the “Liver lipid levels Ch” value amounted to 2.41 ± 0.10 mg/g liver, the “Liver lipid levels PL” value was 40.8 ± 0.3 mg/g liver, the “Liver lipid levels TG” value was 5.32 ± 0.45 mg/g liver and the Relative liver weight is 3.97 ± 0.05 g/100 g b.w. Further, under “Table 2”, the Serum lipid levels Ch amounted to 68.3 ± 3.7 mg/dL; the Serum lipid levels PL amounted to 116 ± 5 mg/dL; the Serum lipid levels TG stood at 48.4 ± 4.8 mg/dL; the “Relative liver weight, relative to Control (100)” value was 103.
In the case of `O=C(OCCc1ccc(OCc2ccc(Cl)cc2)cc1)c1cccnc1` [n1=1, n2=2, 4-(4-Chlorobenzyloxy)phenethyl nicotinate], the response vs control in vivo at 100 mg/kg by setting is: under setting [1], 105%; (240 h, Table 3, read-out: Liver lipid levels PL, relative to Control (100)) 104%; under setting [2], 78.3%; under setting [3], 82.9%; under setting [4], 78.1%; under setting [5], 76.8%. In addition, the response vs control in vivo at 100 mg/kg is 44.2% under setting [6]; 106% (Table 3, read-out: Liver lipid levels Ch, relative to Control (100)); 79% (Table 3, read-out: Liver lipid levels TG, relative to Control (100)); 70.9% (Table 3, read-out: Serum lipid levels Ch, relative to Control (100)); 64.7% (Table 3, read-out: Serum lipid levels PL, relative to Control (100)); 27.3% (Table 3, read-out: Serum lipid levels TG, relative to Control (100)). Besides, the “Liver lipid levels Ch” value is reported as 2.38 ± 0.10 mg/g liver (Table 2) and 2.46 ± 0.14 mg/g liver (Table 3). Also, the “Liver lipid levels PL” value runs as follows: (Table 2) 39.9 ± 0.8 mg/g liver; (Table 3) 37.5 ± 0.4 mg/g liver. In addition, the “Liver lipid levels TG” value (Table 2) is recorded as 5.24 ± 0.36 mg/g liver. Further, the Relative liver weight (Table 2) is listed as 4.10 ± 0.06 g/100 g b.w and the Relative liver weight (Table 3) was 3.80 ± 0.07 g/100 g b.w. Also, the Serum lipid levels Ch reads like this: (Table 2) 67.7 ± 3.3 mg/dL; (Table 3) 69.2 ± 3.9 mg/dL. The Serum lipid levels PL (Table 2) was found to be 114 ± 4.7 mg/dL and the Serum lipid levels PL (Table 3) came out at 101 ± 4.5 mg/dL. Moreover, the Serum lipid levels TG runs as follows: (Table 2) 54.7 ± 6.5 mg/dL; (Table 3) 34.2 ± 2.9 mg/dL. Besides, the “Relative liver weight, relative to Control (100)” value by setting is: (Table 2) 106; (Table 3) 100.
